Assays:
VPS29-VPS35 heterodimer = VPS29-VPS35 heterodimer (Homo sapiens, UniProt Q96QK1+Q9UBQ0); test: STD-NMR and WaterLogsy-NMR ligand-based binding experiments; settings: STD- and WL-NMR competition experiments could not be performed
Procedure: We used a ligand-based NMR approach to localize the binding between compound 2a and the VPS29-VPS35 heterodimer. These techniques provide binding information without requiring any isotopic labeling of the proteins. Particularly, Saturation Transfer Difference NMR (STD-NMR)[32] and WaterLogsy-NMR (WL-NMR)[33] experiments were acquired in buffer solutions containing a large excess of compound 2a (500μM) with respect to VPS29-VPS35 (10 μM). Both STD-NMR and WL-NMR focus on the NMR signals of the ligand and utilize the magnetization transfer by the Nuclear Overhauser Effect (NOE) between protein and ligand. STD-NMR experiments are carried out by subtraction of a 1D ^1H spectrum where the protein protons are selectively irradiated (on-resonance spectrum) from a spectrum in which the protein is not saturated (off-resonance spectrum).
WL-NMR entails magnetization transfer to the ligand from either bulk water via a macromolecule, and/or the exchangeable protons and the water molecules present in the binding site. Positive peaks for proton resonances of the ligand in the WL-NMR spectrum are observed for binders in presence of the protein. […] As negative control, STD-NMR and WL-NMR experiments were performed for compound 2a in absence of the heterodimer. The absence of proton signals in the aromatic zone and the presence of negative signals in STD-NMR (Fig. 2k) and WL-NMR (Fig. 2l) spectra, respectively, confirms the binding between compound 2a and the VPS29-VPS35 heterodimer. Unfortunately, STD- and WL-NMR competition experiments between 2a and R55/1 could not be performed since the latter compound was not stable in our experimental conditions.
NMR spectra were acquired at 298K on a Bruker Avance NEO 700 MHz spectrometer equipped with a Z-gradient cryoprobe. The spectra were processed with the Bruker TOPSPIN 4.0.5 software packages. […] 1D ^1H spectra were recorded using a 1 s presaturation pulse with a B1 power of 200 Hz. […]

VPS35 [1] = target: T1, VPS35 (Mus musculus, UniProt Q9EQH3+Q9QZ88); settings: Neuro2a cells, 10 µM, 48 h, WB
Procedure: Protein extracts were collected, separated by SDS-PAGE and immunoblotted for VPS35 and the housekeeping gene β-Actin.
Neuro2a cells (ATCC® CCL-131™) were seeded in Dulbecco’s modified Eagle’s media (DMEM, Gibco) supplemented with FBS 10% (Gibco), L-glutamine (Gibco) 2 mM and penicillin/streptomycin 1% (Gibco). Depending on the experimental setting, we used 6-well, 12-well or 96-well dishes. Neuro2a were grow at 37 °C in a humidified 5% CO2 atmosphere. All experiments were carried out at least in triplicate. Compounds and transfections were done on cells showing 60–70% of confluence. Compounds were usually kept on cells for 48 h; Bortezomib (BTZ) was used at 10 nM for 6 h to inhibit proteasome.
Protein lysates from cells cultures were collected from plates receiving PBS 1× washing and subsequently the lysis buffer followed by sonication. Protein concentrations were measured by BCA protein assay kit (Thermofisher) according to the manufacturer’s recommendations. Ten µg of protein extract was loaded on 10% Mini-PROTEAN TGX Stain-Free precast gels for PAGE (Bio-Rad). Gel electrophoresis was performed at 100 V for 2 h. Gels were transferred on Immobilon®-P PVDF membrane according to the manufacturer’s instructions (Millipore). Blots were blocked in 5% BSA in Tris buffered saline plus 0.1% Tween-20 (TBS-T) for 1 h before receiving primary antibodies: goat α-VPS35 1:800 (ab10099, Abcam); rabbit α-VPS26 1:1000 (ab23892 Abcam), rabbit α-VPS26b 1:1000 (15915-1-AP, ProteinTech); rabbit α-VPS29 1:1000 (ab236796 Abcam); mouse α-βActin 1:25000 (Sigma–Aldrich); mouse α-Golgin97 1:1000 (Invitrogen); mouse α-Ubiquitin 1:500 (Merk); rabbit α-CD14 1:1000 (Bioss Inc); mouse α-Tubulin 1:5000 (Immunological Sciences MAB-80143) overnight at 4 °C on shaker. Following several washes with TBS-T, blots were incubated in appropriate HRP-labeled secondary antibodies (Bio-Rad) for 1 h at room temperature. Visualization of protein bands was obtained using ClarityMax-ECL (Bio-Rad) according to the manufacturer’s instructions and images were acquired on ChemiDoc (Bio-Rad). Quantifications were done using the Image Lab 6.0.1 software (Bio-Rad).

[2] = test system: Vps35, Vps26, and Vps29 mRNAs; set-up: method as in PMID 24747528; settings: cited from earlier work
[3] = test system: VPS35-VPS29 interaction / retromer; set-up: method as in PMID 24747528; settings: cited from earlier work
APP processing = test system: APP processing; set-up: method as in PMID 24747528; settings: neurons carrying pathogenic APP mutations; cited from earlier work
VPS35 [4] = target: T1, VPS35; test: Western blot for VPS35 in spinal cord extracts of treated C57BL6J mice; format: in vivo; set-up: from tissue; host or cells: mouse (lumbar) spinal cord, motor neurons; settings: 10 mg/Kg intraperitoneally daily, 1 week
Procedure: Compounds 2a, 4a, and standard R55/1 (10 mg/Kg) were intraperitoneally injected in C57BL6J mice daily. After 1 week, mice were sacrificed, saline perfused to avoid CNS contamination by compounds in blood circulation, and SC protein extracts were assayed by WB. […] Therefore, phenyl-1,3-bis-guanylhydrazone 2a was selected as an early lead.

| stability in NMR experimental conditions (VPS29-VPS35 heterodimer) | VPS35 levels (VPS35 [1]) | Compound | transcription levels of CRC genes [2] | VPS35-VPS29 interaction [3] | VPS35 and VPS26 levels in cultured cells [3] | increase of VPS35 levels in cells [3] [%] | accumulation of amyloid-β peptides and APP processing (APP processing) | VPS35 levels in SC extracts (VPS35 [4]) |
| --- | --- | --- | --- | --- | --- | --- | --- | --- |
| not stable | increased | N=C(N)SCc1ccc(CSC(=N)N)s1 [R55/1] | did not influence | stabilizes the VPS35-VPS29 interaction | increases VPS35 and VPS26 levels | ~60 | reduced the accumulation of amyloid-β (Aβ) peptides as well as APP processing |  |
|  | increased VPS35 levels | N=C(N)SCc1cccc(CSC(=N)N)c1 [compound 4a] |  |  |  |  |  | slightly, but not significantly, increased |
|  | increased VPS35 levels | NC(N)=N/N=C/c1ccc(/C=N/N=C(N)N)s1 [compound 3a] |  |  |  |  |  |  |
